# Columns and labels:
# [1] = tested on: STAT3 target genes in SKBR3 cells; experiment: STAT3 target gene expression by qRT-PCR in SKBR3 cells; format: cell-based, human; conditions: 300 μg/ml folinic acid
# Experimental: (§1) Cells were stimulated with 10 ng/ml interleukin 6 (Peprotech) or 10 ng/ml OSM (Peprotech). Cells were stimulated for 15 min for whole cell lysate immunoblotting, 60 to 90 min for qRT–PCR, and 5 to 6 h for luciferase reporter assays.
# Total RNA was extracted from cells using the RNeasy Mini Kit (Qiagen). Complementary DNA was generated using the TaqMan Reverse Transcription Reagents (Invitrogen). qPCR was performed in triplicate or quadruplicate using the Power SYBR Green PCR Master Mix (Invitrogen) on a 7500 Real-Time PCR System (Applied Biosystems) or a QuantStudio 6 Flex Real-Time PCR System (Applied Biosystems). Specificity of amplification was confirmed by melting curve analysis. Cycle threshold (CT) values for target genes were normalized to the endogenous reference gene GAPDH. Primer sequences (Table S3) were designed from the University of California Santa Cruz genome browser reference mRNA sequences using Primer3 ([43]).
# [2] = tested on: STAT3 target genes in U3A cells; experiment: STAT3 target gene expression by qRT-PCR in U3A cells; format: cell-based, human
# [3] = tested on: MDA-MB-468 cells; experiment: Viability assay (CellTiter-Glo, number of viable cells); format: cell-based, human; conditions: 300 μg/ml folinic acid, 48 h
# Experimental: We specifically hypothesized that folinic acid would prevent pyrimethamine-mediated loss of viability and loss of STAT3 transcriptional activity by bypassing DHFR and restoring the folate-dependent processes required for STAT3 transcriptional activity. […] Since MDA-MB-468 cells are dependent on STAT3 activity for survival, loss of viability can reflect STAT3 inhibition.
# Cells (3–5 × 10^3) were plated in white opaque 96-well plates. The next day, cells were treated as indicated. ATP levels were detected at the indicated time points as a proxy for number of viable cells using the CellTiter-Glo Luminescent Cell Viability Assay (Promega). Luminescence was measured using a Luminoskan Ascent Microplate Reader (Labsystems).
# [4] = tested on: STAT3 transcriptional activity in U3A cells; experiment: STAT3-dependent luciferase reporter assay; format: cell-based, human
# Experimental: STAT3-dependent luciferase activity was then used as a measure of STAT3 transcriptional activity.
# as §1
# U3A cells (3 × 10^3) were plated in white opaque 96-well plates and allowed to adhere overnight. For siRNA-mediated knockdown, cells were left in the incubator for 48 h. For drug-mediated inhibition, cells were pretreated with compound for 1 h. Cells were then stimulated with cytokine for 5 to 6 h to activate STAT3. Luciferase activity was detected using the Bright-Glo Luciferase Assay System (Promega) and quantitated using a Luminoskan Ascent Microplate Reader (Labsystems).
# [5] = tested on: STAT3 target genes in MDA-MB-468 cells; experiment: STAT3 target gene expression by qRT-PCR in MDA-MB-468 cells; format: cell-based, human; conditions: MDA-MB-468, 10 μM, 24 h
# [6] = Solubility limit of folic acid in cell experiments; format: physicochemical; conditions: culture media; read-out: maximum concentration testable because of solubility limitations
# [7] = tested on: pSTAT3 in MDA-MB-468 cells; experiment: STAT3 tyrosine phosphorylation by immunoblotting; format: cell-based, human; conditions: 24 h, immunoblot
# [8] = tested on: polar metabolites of MDA-MB-468 cells; experiment: LC/MS-based metabolite profiling; format: cell-based, human; conditions: MDA-MB-468, 24 h, 10 μM pyrimethamine or 0.05 μM methotrexate
smiles,measurement,setting,value
Nc1nc(=O)c2c([nH]1)NCC(CNc1ccc(C(=O)N[C@@H](CCC(=O)O)C(=O)O)cc1)N2C=O (mixture of isomers) [folinic acid],effect on pyrimethamine-mediated loss of OSM-stimulated BCL6 expression,[1],partially prevented
same,effect on pyrimethamine-mediated loss of OSM-stimulated BCL6 expression,[2]; 300 μg/ml folinic acid,completely prevented
same,effect on TG101-dependent loss of viable cells,[3],very little effect
same,effect on pyrimethamine-dependent and methotrexate-dependent decreases in the number of viable cells,[3],almost completely prevented
same,rescue of the effect of methotrexate on STAT3-dependent luciferase,[4]; 1 μM methotrexate,able to rescue
same,effect on TG101-mediated loss of STAT3-dependent luciferase,[4]; 10 μM TG101,no effect
same,effect on the ability of pyrimethamine to inhibit OSM-stimulated STAT3 transcriptional activity,"[4]; 10 μM pyrimethamine, tested concentrations of folate",significantly reduced
"Cc1cnc(Nc2ccc(OCCN3CCCC3)cc2)nc1Nc1cccc(S(=O)(=O)NC(C)(C)C)c1 [TG101, TG101348]",SOCS3 expression in the presence of folinic acid,[5]; 300 μg/ml folinic acid,still reduced
same,SOCS3 expression in the absence of folinic acid,[5],significantly reduced
Nc1nc2ncc(CNc3ccc(C(=O)N[C@@H](CCC(=O)O)C(=O)O)cc3)nc2c(=O)[nH]1 [folic acid],solubility,[6],10 µg/mL
CN(Cc1cnc2nc(N)nc(N)c2n1)c1ccc(C(=O)N[C@@H](CCC(=O)O)C(=O)O)cc1 [methotrexate],total / constitutive STAT3 tyrosine phosphorylation (pSTAT3),[7],decrease
same,deoxyuridine monophosphate level compared with DMSO or ruxolitinib,[8],significantly accumulated
same,purine synthesis intermediates 5-aminoimidazole-4-carboxamide ribonucleotide and glycineamide ribonucleotide,[8],significant increase
same,OSM-stimulated expression of BCL6 and STAT3,"[2]; 1 μM 1 h, 10 ng/ml OSM 90 min",significantly reduced
same,OSM-stimulated STAT3 activity (luciferase),"[4]; 0.5 and 1 μM, 1 h pretreatment, OSM 5 h",decreased
Cc1cn([C@H]2C[C@H](O)[C@@H](CO)O2)c(=O)[nH]c1=O [thymidine],"effect on pyrimethamine inhibition of STAT3 transcriptional activity (viable cells, luciferase, target genes)",[4]; thymidine added with 10 μM pyrimethamine,reduced the ability
same,rescue of methotrexate-mediated loss of STAT3 activity,[4]; thymidine added with methotrexate,unable to rescue

# From publication PMC8800111 (The Journal of Biological Chemistry, 2021)
